Reference: ChEMBL document CHEMBL4507283, “Data for DCP probe BI-1935” (2021)

Legend:
[1] = target: Type-2 angiotensin II receptor (Homo sapiens) (UniProt P50052); experiment: AT2/HU Eurofins-Panlabs selectivity data (BI); details: Compound concentration 10.0 uM
[2] = target: Beta-2 adrenergic receptor (Rattus norvegicus) (UniProt P10608); experiment: BETA/R Eurofins-Panlabs selectivity data (BI); details: Compound concentration 10.0 uM
[3] = target: D(4) dopamine receptor (Homo sapiens) (UniProt P21917); experiment: D4.2/H Eurofins-Panlabs selectivity data (BI); details: Compound concentration 10.0 uM
[4] = target: Sodium-dependent dopamine transporter (Homo sapiens, UniProt Q01959); experiment: DATRANS/H Eurofins-Panlabs selectivity data (BI); details: Compound concentration 10.0 uM
[5] = target: Neprilysin (Homo sapiens) (UniProt P08473); experiment: NEUTRALENDOP Eurofins-Panlabs selectivity data (BI); details: Compound concentration 10.0 uM
[6] = target: 3',5'-cyclic-AMP phosphodiesterase 4A (Homo sapiens) (UniProt P27815); experiment: PDE-IV/HU Eurofins-Panlabs selectivity data (BI); details: Compound concentration 10.0 uM
[7] = target: Phospholipase A2 (Sus scrofa) (UniProt A0A8D1VEY7); experiment: PLA2 Eurofins-Panlabs selectivity data (BI); details: Compound concentration 10.0 uM
[8] = test system: Tyrosine-protein kinase ABL1 (Homo sapiens), P00519 [M351T]; details: Compound concentration 1000.0 nM
[9] = test system: Tyrosine-protein kinase ABL1 (Homo sapiens), P00519 [Y253F]; details: Compound concentration 1000.0 nM
[10] = target: Tyrosine-protein kinase ABL1 (Homo sapiens) (UniProt P00519); details: Compound concentration 1000.0 nM
[11] = target: Aurora kinase A (Homo sapiens) (UniProt O14965); details: Compound concentration 1000.0 nM
[12] = target: Cyclin-dependent kinase 4 (Homo sapiens) (UniProt P11802); details: Compound concentration 1000.0 nM
[13] = target: Cyclin-dependent kinase-like 3 (Homo sapiens) (UniProt Q8IVW4); details: Compound concentration 1000.0 nM
[14] = target: Macrophage colony-stimulating factor 1 receptor (Homo sapiens) (UniProt P07333); details: Compound concentration 1000.0 nM
[15] = target: Casein kinase I isoform alpha (Homo sapiens) (UniProt P48729); details: Compound concentration 1000.0 nM
[16] = target: Casein kinase I isoform gamma-1 (Homo sapiens) (UniProt Q9HCP0); details: Compound concentration 1000.0 nM
[17] = target: Casein kinase I isoform gamma-2 (Homo sapiens) (UniProt P78368); details: Compound concentration 1000.0 nM
[18] = test system: Fibroblast growth factor receptor 3 (Homo sapiens), P22607 [G697C]; details: Compound concentration 1000.0 nM
[19] = test system: Receptor-type tyrosine-protein kinase FLT3 (Homo sapiens), P36888 [D835Y]; details: Compound concentration 1000.0 nM
[20] = test system: Receptor-type tyrosine-protein kinase FLT3 (Homo sapiens), P36888 [UNDEFINED MUTATION]; details: Compound concentration 1000.0 nM
[21] = target: Interleukin-1 receptor-associated kinase 4 (Homo sapiens) (UniProt Q9NWZ3); details: Compound concentration 1000.0 nM
[22] = target: Tyrosine-protein kinase JAK2 (Homo sapiens) (UniProt O60674); details: Compound concentration 1000.0 nM
[23] = target: MAP kinase-activated protein kinase 5 (Homo sapiens) (UniProt Q8IW41); details: Compound concentration 1000.0 nM
[24] = target: Dual specificity mitogen-activated protein kinase kinase 5 (Homo sapiens) (UniProt Q13163); details: Compound concentration 1000.0 nM
[25] = target: Muscle, skeletal receptor tyrosine-protein kinase (Homo sapiens) (UniProt O15146); details: Compound concentration 1000.0 nM
[26] = target: Myosin-IIIb (Homo sapiens) (UniProt Q8WXR4); details: Compound concentration 1000.0 nM
[27] = target: Serine/threonine-protein kinase NIM1 (Homo sapiens) (UniProt Q8IY84); details: Compound concentration 1000.0 nM
[28] = target: Mitogen-activated protein kinase 13 (Homo sapiens) (UniProt O15264); details: Compound concentration 1000.0 nM
[29] = target: Cyclin-dependent kinase 14 (Homo sapiens) (UniProt O94921); details: Compound concentration 1000.0 nM
[30] = target: Phosphatidylinositol 4-phosphate 3-kinase C2 domain-containing subunit beta (Homo sapiens) (UniProt O00750); details: Compound concentration 1000.0 nM
[31] = target: Serine/threonine-protein kinase PLK4 (Homo sapiens) (UniProt O00444); details: Compound concentration 1000.0 nM
[32] = target: Serine/threonine-protein kinase Sgk1 (Homo sapiens) (UniProt O00141); details: Compound concentration 1000.0 nM
[33] = target: Tyrosine-protein kinase Srms (Homo sapiens) (UniProt Q9H3Y6); details: Compound concentration 1000.0 nM
[34] = target: Serine/threonine-protein kinase 33 (Homo sapiens) (UniProt Q9BYT3); details: Compound concentration 1000.0 nM
[35] = target: Serine/threonine-protein kinase tousled-like 2 (Homo sapiens) (UniProt Q86UE8); details: Compound concentration 1000.0 nM
[36] = target: Transient receptor potential cation channel subfamily M member 6 (Homo sapiens) (UniProt Q9BX84); details: Compound concentration 1000.0 nM
[37] = target: Mitogen-activated protein kinase kinase kinase 19 (Homo sapiens) (UniProt Q56UN5); details: Compound concentration 1000.0 nM
[38] = target: Muscarinic acetylcholine receptor M3 (Homo sapiens) (UniProt P20309); details: Compound concentration 10.0 uM
[39] = target: Muscarinic acetylcholine receptor M4 (Homo sapiens) (UniProt P08173); details: Compound concentration 10.0 uM
[40] = target: Sigma non-opioid intracellular receptor 1 (Homo sapiens, UniProt Q99720); details: Compound concentration 10.0 uM

Sequence of Aurora kinase A (Homo sapiens) (O14965 whole entry): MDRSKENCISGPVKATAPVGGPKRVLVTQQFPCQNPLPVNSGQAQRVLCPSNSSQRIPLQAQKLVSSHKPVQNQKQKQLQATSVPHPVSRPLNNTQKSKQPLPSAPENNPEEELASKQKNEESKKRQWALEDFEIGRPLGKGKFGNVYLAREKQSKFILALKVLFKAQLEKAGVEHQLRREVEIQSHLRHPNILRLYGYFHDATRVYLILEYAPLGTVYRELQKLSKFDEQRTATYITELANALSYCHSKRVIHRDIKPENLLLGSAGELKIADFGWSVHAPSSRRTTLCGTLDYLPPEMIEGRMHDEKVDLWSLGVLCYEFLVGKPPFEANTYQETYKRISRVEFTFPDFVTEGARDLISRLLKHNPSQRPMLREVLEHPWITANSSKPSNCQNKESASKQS
Sequence of Casein kinase I isoform alpha (Homo sapiens) (P48729 2-337 limits assumed): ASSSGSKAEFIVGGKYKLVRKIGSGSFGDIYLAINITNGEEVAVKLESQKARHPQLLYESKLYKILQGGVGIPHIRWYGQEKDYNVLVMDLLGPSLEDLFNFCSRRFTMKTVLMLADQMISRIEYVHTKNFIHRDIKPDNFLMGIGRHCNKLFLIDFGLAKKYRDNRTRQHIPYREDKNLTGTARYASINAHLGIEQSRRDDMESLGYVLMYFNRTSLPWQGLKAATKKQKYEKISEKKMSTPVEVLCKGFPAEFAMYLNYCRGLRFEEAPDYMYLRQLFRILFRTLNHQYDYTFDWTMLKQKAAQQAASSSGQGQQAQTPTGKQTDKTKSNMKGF
Sequence of 3',5'-cyclic-AMP phosphodiesterase 4A (Homo sapiens) (P27815 whole entry): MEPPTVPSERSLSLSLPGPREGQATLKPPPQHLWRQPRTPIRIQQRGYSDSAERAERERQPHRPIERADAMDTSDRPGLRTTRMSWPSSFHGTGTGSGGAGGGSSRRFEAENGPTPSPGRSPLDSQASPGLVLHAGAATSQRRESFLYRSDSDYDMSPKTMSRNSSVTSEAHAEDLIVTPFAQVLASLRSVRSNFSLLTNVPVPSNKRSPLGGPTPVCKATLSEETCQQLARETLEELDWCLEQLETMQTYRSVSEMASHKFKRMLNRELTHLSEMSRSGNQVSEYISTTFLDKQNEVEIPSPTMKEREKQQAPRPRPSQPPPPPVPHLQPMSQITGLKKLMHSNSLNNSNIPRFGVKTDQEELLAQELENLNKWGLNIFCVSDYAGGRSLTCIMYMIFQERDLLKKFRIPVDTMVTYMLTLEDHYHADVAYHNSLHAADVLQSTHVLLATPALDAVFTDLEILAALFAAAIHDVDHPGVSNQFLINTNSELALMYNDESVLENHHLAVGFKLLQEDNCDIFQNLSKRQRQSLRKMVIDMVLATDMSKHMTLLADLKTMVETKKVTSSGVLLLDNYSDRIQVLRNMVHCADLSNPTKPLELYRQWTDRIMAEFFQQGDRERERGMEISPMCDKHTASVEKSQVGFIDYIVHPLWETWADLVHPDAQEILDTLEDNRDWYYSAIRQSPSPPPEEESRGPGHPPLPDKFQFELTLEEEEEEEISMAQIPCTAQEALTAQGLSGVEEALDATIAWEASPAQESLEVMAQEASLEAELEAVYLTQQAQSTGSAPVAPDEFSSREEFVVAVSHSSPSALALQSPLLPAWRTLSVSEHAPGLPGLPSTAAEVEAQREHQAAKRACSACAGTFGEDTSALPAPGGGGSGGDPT
Sequence of Myosin-IIIb (Homo sapiens) (Q8WXR4 whole entry): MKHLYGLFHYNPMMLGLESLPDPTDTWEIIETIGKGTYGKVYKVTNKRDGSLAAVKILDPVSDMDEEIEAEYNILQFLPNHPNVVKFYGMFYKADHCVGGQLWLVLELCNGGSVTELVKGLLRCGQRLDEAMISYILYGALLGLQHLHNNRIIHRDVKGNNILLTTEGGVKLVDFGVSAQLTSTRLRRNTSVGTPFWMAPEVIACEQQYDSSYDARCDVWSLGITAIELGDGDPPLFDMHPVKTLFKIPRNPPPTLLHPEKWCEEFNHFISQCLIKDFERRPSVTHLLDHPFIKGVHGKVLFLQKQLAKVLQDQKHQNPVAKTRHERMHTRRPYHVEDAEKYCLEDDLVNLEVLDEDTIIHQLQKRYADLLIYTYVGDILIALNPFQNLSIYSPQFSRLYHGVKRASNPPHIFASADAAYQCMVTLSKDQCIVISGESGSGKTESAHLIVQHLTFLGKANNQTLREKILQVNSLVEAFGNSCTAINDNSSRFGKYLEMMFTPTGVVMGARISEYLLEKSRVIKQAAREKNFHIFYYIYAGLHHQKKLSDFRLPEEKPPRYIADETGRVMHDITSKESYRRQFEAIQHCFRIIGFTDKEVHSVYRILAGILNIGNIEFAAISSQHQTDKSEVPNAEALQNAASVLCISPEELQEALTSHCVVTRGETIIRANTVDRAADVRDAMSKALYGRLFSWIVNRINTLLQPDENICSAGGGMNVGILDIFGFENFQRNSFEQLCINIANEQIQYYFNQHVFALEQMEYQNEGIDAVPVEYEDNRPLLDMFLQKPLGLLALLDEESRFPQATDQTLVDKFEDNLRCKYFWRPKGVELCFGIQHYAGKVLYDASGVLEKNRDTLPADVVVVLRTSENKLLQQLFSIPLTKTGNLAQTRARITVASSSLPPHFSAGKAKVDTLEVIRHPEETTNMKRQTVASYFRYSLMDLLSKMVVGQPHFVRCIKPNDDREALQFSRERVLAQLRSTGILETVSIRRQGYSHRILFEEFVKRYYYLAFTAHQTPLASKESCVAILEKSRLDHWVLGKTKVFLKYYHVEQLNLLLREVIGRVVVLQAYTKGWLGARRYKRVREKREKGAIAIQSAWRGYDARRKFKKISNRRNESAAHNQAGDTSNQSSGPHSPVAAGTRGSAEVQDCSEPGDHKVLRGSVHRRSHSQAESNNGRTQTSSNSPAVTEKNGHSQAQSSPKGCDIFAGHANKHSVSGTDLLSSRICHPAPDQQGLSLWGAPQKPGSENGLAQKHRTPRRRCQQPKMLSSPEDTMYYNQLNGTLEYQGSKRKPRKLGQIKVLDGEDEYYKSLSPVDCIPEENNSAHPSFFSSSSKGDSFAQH
Sequence of Dual specificity mitogen-activated protein kinase kinase 5 (Homo sapiens) (Q13163 whole entry): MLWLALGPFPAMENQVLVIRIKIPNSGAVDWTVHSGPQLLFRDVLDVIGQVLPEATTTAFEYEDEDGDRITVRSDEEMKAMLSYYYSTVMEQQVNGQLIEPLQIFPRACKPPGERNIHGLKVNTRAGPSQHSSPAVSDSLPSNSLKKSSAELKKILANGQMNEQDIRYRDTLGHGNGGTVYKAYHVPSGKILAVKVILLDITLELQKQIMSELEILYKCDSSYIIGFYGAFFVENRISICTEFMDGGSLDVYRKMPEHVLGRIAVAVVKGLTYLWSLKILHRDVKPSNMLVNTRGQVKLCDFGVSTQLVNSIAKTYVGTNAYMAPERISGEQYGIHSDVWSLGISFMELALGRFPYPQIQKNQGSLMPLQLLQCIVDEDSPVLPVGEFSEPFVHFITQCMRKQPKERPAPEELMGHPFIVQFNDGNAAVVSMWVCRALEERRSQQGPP
Sequence of Sodium-dependent dopamine transporter (Q01959 whole entry): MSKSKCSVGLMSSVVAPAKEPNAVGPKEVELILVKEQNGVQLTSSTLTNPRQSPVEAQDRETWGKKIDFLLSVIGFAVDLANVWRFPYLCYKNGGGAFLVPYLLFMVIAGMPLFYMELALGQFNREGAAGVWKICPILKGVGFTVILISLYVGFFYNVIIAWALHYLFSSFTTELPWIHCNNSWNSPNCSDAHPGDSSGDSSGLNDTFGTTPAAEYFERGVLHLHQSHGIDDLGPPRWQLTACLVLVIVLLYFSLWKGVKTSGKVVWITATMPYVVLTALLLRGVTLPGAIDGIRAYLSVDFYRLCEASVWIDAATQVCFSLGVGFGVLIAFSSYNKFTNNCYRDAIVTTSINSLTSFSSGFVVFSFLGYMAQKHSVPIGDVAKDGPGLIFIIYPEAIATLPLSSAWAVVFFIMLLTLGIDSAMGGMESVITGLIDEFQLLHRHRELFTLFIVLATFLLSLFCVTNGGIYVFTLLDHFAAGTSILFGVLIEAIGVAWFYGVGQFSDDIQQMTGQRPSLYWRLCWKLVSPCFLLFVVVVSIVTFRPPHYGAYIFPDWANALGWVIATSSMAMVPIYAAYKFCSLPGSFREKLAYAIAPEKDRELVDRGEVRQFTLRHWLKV
Sequence of Muscle, skeletal receptor tyrosine-protein kinase (Homo sapiens) (O15146 whole entry): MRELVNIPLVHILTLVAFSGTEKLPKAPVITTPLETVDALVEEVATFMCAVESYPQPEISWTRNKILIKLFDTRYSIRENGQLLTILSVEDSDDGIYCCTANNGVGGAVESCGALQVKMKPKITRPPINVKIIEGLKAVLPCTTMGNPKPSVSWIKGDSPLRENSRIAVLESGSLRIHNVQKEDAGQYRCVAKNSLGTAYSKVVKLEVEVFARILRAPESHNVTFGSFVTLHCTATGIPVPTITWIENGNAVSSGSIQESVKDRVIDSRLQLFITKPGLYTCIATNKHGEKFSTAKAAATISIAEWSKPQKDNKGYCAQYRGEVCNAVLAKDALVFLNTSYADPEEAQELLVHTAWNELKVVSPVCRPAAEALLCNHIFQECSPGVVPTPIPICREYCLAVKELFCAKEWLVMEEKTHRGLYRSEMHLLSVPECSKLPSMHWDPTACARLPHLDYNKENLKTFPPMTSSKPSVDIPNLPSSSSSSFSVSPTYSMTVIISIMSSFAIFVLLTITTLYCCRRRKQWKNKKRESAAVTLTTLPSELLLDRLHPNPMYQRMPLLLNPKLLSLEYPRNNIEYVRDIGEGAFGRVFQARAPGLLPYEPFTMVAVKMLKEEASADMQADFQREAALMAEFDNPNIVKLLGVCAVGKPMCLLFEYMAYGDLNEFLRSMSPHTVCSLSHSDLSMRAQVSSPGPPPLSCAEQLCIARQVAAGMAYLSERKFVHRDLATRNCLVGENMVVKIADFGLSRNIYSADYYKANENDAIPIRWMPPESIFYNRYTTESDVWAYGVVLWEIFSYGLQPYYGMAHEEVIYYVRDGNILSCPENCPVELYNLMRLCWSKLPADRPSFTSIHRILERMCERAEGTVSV
Sequence of Phospholipase A2 (Sus scrofa) (A0A8D1VEY7 as listed by the source): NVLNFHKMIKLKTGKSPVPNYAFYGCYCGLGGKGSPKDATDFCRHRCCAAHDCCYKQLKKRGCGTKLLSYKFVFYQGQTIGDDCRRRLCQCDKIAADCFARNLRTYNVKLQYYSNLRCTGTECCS

CCOCCn1cc(C(=O)Nc2ccc(-n3nc(-c4cccnc4)cc3C(F)(F)F)cn2)ccc1=O [BI 1935]
inactive: residual activity [1] 97% | residual activity [2] 98% | residual activity [3] 103% | residual activity [4] 98% | residual activity [5] 104% | residual activity [6] 86% | residual activity [7] 96% | residual activity [8] 100% | residual activity [9] 73% | residual activity [10] 94% | residual activity [11] 85% | residual activity [12] 87% | residual activity [13] 84% | residual activity [14] 100% | residual activity [15] 74% | residual activity [16] 100% | residual activity [17] 100% | residual activity [18] 100% | residual activity [19] 98% | residual activity [20] 79% | residual activity [21] 96% | residual activity [22] 91% | residual activity [23] 87% | residual activity [24] 84% | residual activity [25] 99% | residual activity [26] 96% | residual activity [27] 100% | residual activity [28] 97% | residual activity [29] 100% | residual activity [30] 72% | residual activity [31] 100% | residual activity [32] 83% | residual activity [33] 79% | residual activity [34] 94% | residual activity [35] 100% | residual activity [36] 73% | residual activity [37] 75% | inhibition [38] 10.2% | inhibition [39] 4.25% | inhibition [40] 50%
